Experimental data taken from BindingDB's records for doi:10.1021/np8001145 (Kaohsiung Medical University, 2008).

Target: Xanthine dehydrogenase/oxidase (Homo sapiens, UniProt P47989)
Experiment: Inhibition of xanthine oxidase

Chain of Xanthine dehydrogenase/oxidase (P47989 whole entry): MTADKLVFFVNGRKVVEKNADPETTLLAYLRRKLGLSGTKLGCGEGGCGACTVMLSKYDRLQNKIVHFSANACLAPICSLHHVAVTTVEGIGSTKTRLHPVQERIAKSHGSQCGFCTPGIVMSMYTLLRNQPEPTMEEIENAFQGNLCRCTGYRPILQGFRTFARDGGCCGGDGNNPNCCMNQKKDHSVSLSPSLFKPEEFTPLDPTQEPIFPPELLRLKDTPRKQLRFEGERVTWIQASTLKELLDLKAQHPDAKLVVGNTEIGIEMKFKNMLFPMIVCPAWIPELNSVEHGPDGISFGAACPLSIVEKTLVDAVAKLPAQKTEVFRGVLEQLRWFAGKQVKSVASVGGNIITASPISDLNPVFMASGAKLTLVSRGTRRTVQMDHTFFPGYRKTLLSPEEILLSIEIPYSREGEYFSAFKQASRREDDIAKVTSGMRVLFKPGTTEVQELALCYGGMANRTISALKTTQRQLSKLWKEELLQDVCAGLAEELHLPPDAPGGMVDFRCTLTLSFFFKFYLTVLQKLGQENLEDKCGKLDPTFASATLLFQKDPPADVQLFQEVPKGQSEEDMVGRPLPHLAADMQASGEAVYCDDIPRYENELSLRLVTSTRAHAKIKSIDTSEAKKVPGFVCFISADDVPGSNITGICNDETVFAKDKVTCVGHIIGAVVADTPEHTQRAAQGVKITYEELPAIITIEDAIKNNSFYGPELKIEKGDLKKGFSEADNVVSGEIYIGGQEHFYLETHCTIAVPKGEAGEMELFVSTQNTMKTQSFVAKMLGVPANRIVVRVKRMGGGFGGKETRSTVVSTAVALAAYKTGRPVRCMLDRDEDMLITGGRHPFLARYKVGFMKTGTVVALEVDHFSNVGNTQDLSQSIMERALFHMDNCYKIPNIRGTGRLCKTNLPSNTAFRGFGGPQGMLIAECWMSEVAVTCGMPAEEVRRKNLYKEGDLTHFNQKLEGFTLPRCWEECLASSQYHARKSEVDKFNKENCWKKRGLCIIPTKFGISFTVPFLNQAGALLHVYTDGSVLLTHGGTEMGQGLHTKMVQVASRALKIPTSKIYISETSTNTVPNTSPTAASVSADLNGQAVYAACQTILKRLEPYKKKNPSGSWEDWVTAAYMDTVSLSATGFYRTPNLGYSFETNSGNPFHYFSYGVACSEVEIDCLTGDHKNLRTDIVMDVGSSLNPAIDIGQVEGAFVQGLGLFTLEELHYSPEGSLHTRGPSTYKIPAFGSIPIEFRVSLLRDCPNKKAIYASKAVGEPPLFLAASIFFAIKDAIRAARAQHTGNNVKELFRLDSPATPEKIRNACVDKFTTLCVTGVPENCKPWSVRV

- IC50: 42.1 µM
SMILES: CCC(C)C(=O)C1C(=O)[C@@](C)(CC=C(C)C)C(=O)[C@@]2(C[C@H]3[C@H](CC[C@@]3(C)O)[C@](C)(O)C2)C1=O (stereo partly specified)
